Results taken from paper PMC11087803 (Proceedings of the National Academy of Sciences of the …, 2024).

What was measured:
[1] = Metabolic stability assay in liver microsomes; type: in vitro ADME, human
[2] = Metabolic stability assay in liver microsomes; type: in vitro ADME, mouse

Q: Which “HLM t1/2” value ([1]; human liver microsomes 0.5 mg protein/mL, 2.0 μM compound, 37°C) does the source give for `Cc1nnc2n1-c1ccc(Cl)cc1C(c1ccccc1)=NC2` [Alprazolam] here?
A: 13.9 h

Q: What about the microsomal CLint at 2 μM ([1]; human, liver microsomes) of the same compound?
A: 2 µL/min/mg

Q: And the “MLM t1/2” value ([2]; mouse liver microsomes 0.5 mg protein/mL, 2.0 μM compound, 37°C)?
A: 4.93 h

Q: And the microsomal CLint at 2 μM ([2]; mouse, liver microsomes)?
A: 5 µL/min/mg
